Test results taken from ChEMBL document CHEMBL4715697, “Synthesis and biological activity of benzamide DNA minor groove binders” (2016).

Key:
Format in all cases: functional
[1] = test system: HCC 2998; assay: Growth inhibition of human HCC 2998 cells assessed as cell growth at 0.01 uM incubated for 48 hrs by sulforhodamine B assay relative to control; conditions: read-out: Activity
[2] = test system: HCT-15; assay: Growth inhibition of human HCT-15 cells assessed as cell growth at 0.01 uM incubated for 48 hrs by sulforhodamine B assay relative to control; conditions: read-out: Activity
[3] = test system: HT-29; assay: Growth inhibition of human HT-29 cells assessed as cell growth at 100 uM incubated for 48 hrs by sulforhodamine B assay relative to control; conditions: read-out: Activity
[4] = test system: BT-549; assay: Growth inhibition of human BT-549 cells assessed as cell growth at 1 uM incubated for 48 hrs by sulforhodamine B assay relative to control; conditions: read-out: Activity
[5] = test system: SF-539; assay: Growth inhibition of human SF-539 cells assessed as cell growth at 0.1 uM incubated for 48 hrs by sulforhodamine B assay relative to control; conditions: read-out: Activity
[6] = test system: NCI/ADR-RES; assay: Growth inhibition of human NCI/ADR-RES cells assessed as cell growth at 0.01 uM incubated for 48 hrs by sulforhodamine B assay relative to control; conditions: read-out: Activity
[7] = test system: SW-620; assay: Growth inhibition of human SW-620 cells assessed as cell growth at 100 uM incubated for 48 hrs by sulforhodamine B assay relative to control; conditions: read-out: Activity
[8] = test system: CAKI-1; assay: Growth inhibition of human CAKI-1 cells assessed as cell growth at 100 uM incubated for 48 hrs by sulforhodamine B assay relative to control; conditions: read-out: Activity
[9] = test system: MDA-MB-435; assay: Growth inhibition of human MDA-MB-435 cells incubated for 48 hrs by sulforhodamine B assay
[10] = test system: NCI/ADR-RES; assay: Growth inhibition of human NCI/ADR-RES cells assessed as cell growth at 100 uM incubated for 48 hrs by sulforhodamine B assay relative to control; conditions: read-out: Activity
[11] = test system: UACC-62; assay: Growth inhibition of human UACC-62 cells incubated for 48 hrs by sulforhodamine B assay
[12] = test system: NCI-H460; assay: Growth inhibition of human NCI-H460 cells assessed as cell growth at 1 uM incubated for 48 hrs by sulforhodamine B assay relative to control; conditions: read-out: Activity
[13] = test system: RPMI-8226; assay: Growth inhibition of human RPMI-8226 cells assessed as cell growth at 100 uM incubated for 48 hrs by sulforhodamine B assay relative to control; conditions: read-out: Activity
[14] = test system: LOX IMVI; assay: Growth inhibition of human LOX IMVI cells assessed as cell growth at 1 uM incubated for 48 hrs by sulforhodamine B assay relative to control; conditions: read-out: Activity
[15] = test system: UO-31; assay: Growth inhibition of human UO-31 cells assessed as cell growth at 100 uM incubated for 48 hrs by sulforhodamine B assay relative to control; conditions: read-out: Activity
[16] = test system: ACHN; assay: Growth inhibition of human ACHN cells incubated for 48 hrs by sulforhodamine B assay
[17] = test system: HOP-62; assay: Growth inhibition of human HOP-62 cells incubated for 48 hrs by sulforhodamine B assay
[18] = test system: A549; assay: Growth inhibition of human A549/ATCC cells assessed as cell growth at 0.01 uM incubated for 48 hrs by sulforhodamine B assay relative to control; conditions: read-out: Activity
[19] = test system: SF-539; assay: Growth inhibition of human SF-539 cells assessed as cell growth at 0.01 uM incubated for 48 hrs by sulforhodamine B assay relative to control; conditions: read-out: Activity
[20] = test system: 786-0; assay: Growth inhibition of human 786-0 cells assessed as cell growth at 0.1 uM incubated for 48 hrs by sulforhodamine B assay relative to control; conditions: read-out: Activity
[21] = test system: SNB-75; assay: Growth inhibition of human SNB-75 cells assessed as cell growth at 100 uM incubated for 48 hrs by sulforhodamine B assay relative to control; conditions: read-out: Activity
[22] = test system: OVCAR-5; assay: Growth inhibition of human OVCAR-5 cells assessed as cell growth at 0.01 uM incubated for 48 hrs by sulforhodamine B assay relative to control; conditions: read-out: Activity
[23] = test system: SK-OV-3; assay: Growth inhibition of human SK-OV-3 cells incubated for 48 hrs by sulforhodamine B assay
[24] = test system: SN12C; assay: Growth inhibition of human SN12C cells assessed as cell growth at 0.1 uM incubated for 48 hrs by sulforhodamine B assay relative to control; conditions: read-out: Activity
[25] = test system: HCT-116; assay: Growth inhibition of human HCT-116 cells assessed as cell growth at 1 uM incubated for 48 hrs by sulforhodamine B assay relative to control; conditions: read-out: Activity
[26] = test system: NCI-H23; assay: Growth inhibition of human NCI-H23 cells assessed as cell growth at 0.1 uM incubated for 48 hrs by sulforhodamine B assay relative to control; conditions: read-out: Activity
[27] = test system: OVCAR-5; assay: Growth inhibition of human OVCAR-5 cells incubated for 48 hrs by sulforhodamine B assay
[28] = test system: SN12C; assay: Growth inhibition of human SN12C cells assessed as cell growth at 1 uM incubated for 48 hrs by sulforhodamine B assay relative to control; conditions: read-out: Activity
[29] = test system: SF-268; assay: Growth inhibition of human SF-268 cells assessed as cell growth at 100 uM incubated for 48 hrs by sulforhodamine B assay relative to control; conditions: read-out: Activity
[30] = test system: A549; assay: Growth inhibition of human A549/ATCC cells incubated for 48 hrs by sulforhodamine B assay
[31] = test system: NCI-H23; assay: Growth inhibition of human NCI-H23 cells assessed as cell growth at 100 uM incubated for 48 hrs by sulforhodamine B assay relative to control; conditions: read-out: Activity
[32] = test system: SK-MEL-28; assay: Growth inhibition of human SK-MEL-28 cells assessed as cell growth at 0.01 uM incubated for 48 hrs by sulforhodamine B assay relative to control; conditions: read-out: Activity
[33] = test system: SK-MEL-28; assay: Growth inhibition of human SK-MEL-28 cells incubated for 48 hrs by sulforhodamine B assay
[34] = test system: A498; assay: Growth inhibition of human A498 cells assessed as cell growth at 0.1 uM incubated for 48 hrs by sulforhodamine B assay relative to control; conditions: read-out: Activity
[35] = read-out: LC50 (the source's name)
[36] = read-out: pLC50 (the source's name) (converted)

CC(=O)Nc1cc(CO[Si](C)(C)C(C)(C)C)cc(NC(=O)c2ccc(C(=O)Nc3cccc(NC(=O)CCCN(C)C)c3)cc2)c1
92%: growth at 100 µM [10]
98%: growth at 0.01 µM [1] | growth at 0.1 µM [5] | growth at 0.1 µM [26] | growth at 0.01 µM [32]
89%: growth at 100 µM [15]
94%: growth at 1 µM [14]
95%: growth at 0.01 µM [19] | growth at 0.1 µM [24]
82%: growth at 100 µM [29]
93%: growth at 0.01 µM [2] | growth at 0.1 µM [20] | growth at 0.01 µM [22]
77%: growth at 100 µM [8]
84%: growth at 100 µM [31]
99%: growth at 1 µM [4] | growth at 1 µM [12] | growth at 0.01 µM [18]
100%: growth at 100 µM [3] | growth at 100 µM [7] | growth at 1 µM [28]
> 75 µM: GI50 ([9]; read-out: GI50) | LC50 (50% lethal concentration) ([9]; read-out: LC50) | TGI ([9]; read-out: TGI) | GI50 ([11]; read-out: GI50) | CC50 [11, 35] | TGI ([11]; read-out: TGI) | GI50 ([16]; read-out: GI50) | CC50 [16, 35] | TGI ([16]; read-out: TGI) | GI50 ([17]; read-out: GI50) | CC50 [17, 35] | TGI ([17]; read-out: TGI) | GI50 ([23]; read-out: GI50) | LC50 (concentration killing 50% of cells) ([23]; read-out: LC50) | TGI ([23]; read-out: TGI) | GI50 ([27]; read-out: GI50) | LC50 ([27]; read-out: LC50) | TGI ([27]; read-out: TGI) | GI50 ([30]; read-out: GI50) | CC50 [30, 35] | TGI ([30]; read-out: TGI) | GI50 ([33]; read-out: GI50) | LC50 (50% lethal concentration) ([33]; read-out: LC50) | TGI ([33]; read-out: TGI)
101%: growth at 1 µM [25]
104%: growth at 100 µM [13]
> 75.9 µM: GI50 ([9]; read-out: pGI50 (converted)) | LC50 (50% lethal concentration) ([9]; read-out: pLC50 (converted)) | TGI ([9]; read-out: pTGI) | GI50 ([11]; read-out: pGI50 (converted)) | CC50 [11, 36] | TGI ([11]; read-out: pTGI) | GI50 ([16]; read-out: pGI50 (converted)) | CC50 [16, 36] | TGI ([16]; read-out: pTGI) | GI50 ([17]; read-out: pGI50 (converted)) | CC50 [17, 36] | TGI ([17]; read-out: pTGI) | GI50 ([23]; read-out: pGI50 (converted)) | LC50 (concentration killing 50% of cells) ([23]; read-out: pLC50 (converted)) | TGI ([23]; read-out: pTGI) | GI50 ([27]; read-out: pGI50 (converted)) | LC50 ([27]; read-out: pLC50 (converted)) | TGI ([27]; read-out: pTGI) | GI50 ([30]; read-out: pGI50 (converted)) | CC50 [30, 36] | TGI ([30]; read-out: pTGI) | GI50 ([33]; read-out: pGI50 (converted)) | LC50 (50% lethal concentration) ([33]; read-out: pLC50 (converted)) | TGI ([33]; read-out: pTGI)
62%: growth at 0.1 µM [34]
103%: growth at 0.01 µM [6]
50%: growth at 100 µM [21]
